Experimental data: patent US20090162280A1, “DETECTING SOLUBLE A-BETA” (GENERAL ELECTRIC COMPANY, priority 2007, published 2009)

How the values were obtained:
[1] = molecular target: T1, soluble A-beta oligomers (beta-amyloid 1-42 oligomer, 20% biotin) (Homo sapiens, UniProt P05067); assay: SPA competition binding against tritium labeled 49b on soluble A-beta oligomers; conditions: for % inhibition: 50 uM unlabeled competitor, 130 nM tritium labeled-49b; for IC50: 130 nM 3H-49b, unlabeled competitor
T1 construct: 1 mg of human beta-amyloid 1-42 (H-1368, Bachem); purchased Bachem H-1368 (unlabelled), H-5642 (biotinylated)
T1 sequence (P05067 672-713): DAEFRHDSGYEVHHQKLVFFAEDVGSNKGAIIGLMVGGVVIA
Description: A. Soluble A-beta. 1 mg of human beta-amyloid 1-42 (H-1368, Bachem) and 500 uL of 1,1,1,3,3,3 hexafluoro-2-propanol (HFIP) (Aldrich) were chilled in separate bottles on ice for 30 minutes. Cold beta-amyloid 1-42 was solubilized with cold HFIP. The mixture was incubated for 1 hr at room temperature until it turned clear. The resulting solution was then dried to a film under vacuum. The film was dissolved again in cold HFIP and incubated another 1 hr at room temperature. The resulting solution was separated into aliquots in several microcentrifuge tubes. HFIP was removed under vacuum, and the films were stored at −20° C. until use. To prepare soluble oligomer, the film was dissolved in appropriate amount of dry DMSO (Sigma), and Ham's F12 media (Biosource) or PBS (Sigma, D8537) was added and incubated at 4° C. for 24 hours (final concentration of 200 uM or 0.9 mg/mL beta-amyloid in 2% DMSO). The tube containing the soluble oligomers was centrifuged at 13,000 rpm for 5 minutes, and its supernatant was transferred to a clean tube.
The three compounds shown in Table 1 were synthesized and evaluated for their ability to bind to soluble A-beta using the scintillation proximity assays (SPA) and/or AFM as described below. The percent inhibition reported was for 50 uM of the indicated unlabeled competitor and 130 nM of tritium labeled-49b.
(§1) For SPA and atomic force microscopy experiments, preparations of soluble oligomers and fibrils contained 20% biotinylated beta-amyloid 1-42 and 1-40, respectively (H-5642, H-5914, Bachem).
Lyophilized Streptavidin-Ysi beads (GE Healthcare) were reconstituted to 100 mg/mL in deionized water, and then further diluted in deionized water to give a suspension containing 0.25 mg/10 μL water. Unlabeled 49b, PIB and compound of formula III (353207) were dissolved in DMSO to give a final stock concentration of 15 mM.
For the saturation-binding assay, isotopic dilution of radiolabeled 49b with unlabeled 49b was performed. ^3H-49b was added to 500 uM of unlabeled 49b to a final concentration of 50 μCi/mL ^3H-49b. The probe solution was then serially diluted in PBS to give six solutions giving 6.6, 13.1, 26.3, 52.5, 105, or 210 uM in the final assay well. Each concentration of the probe solution was incubated with 12 μg beta-amyloid 1-42 oligomer (20% biotin) or 1-40 (20% biotin) fibrils in a total volume of 90 μL. Assays were incubated at room temp for 2 hrs before addition of 10 μL YSi-streptavidin (0.25 mg) SPA bead. Assays were set-up in triplicate in 96-well NBS plates (Costar). Assays were incubated overnight and counted the following morning. […] The specific activities of four probes were different, however the level of activity was the same at the concentrations where the probes were tested. […]

[2] = molecular target: T1, soluble A-beta oligomers (beta-amyloid 1-42 oligomer, 20% biotin); assay: SPA saturation / direct binding of tritium labeled probes to soluble A-beta oligomers
Description: For the saturation-binding assay, isotopic dilution of radiolabeled 49b with unlabeled 49b was performed. ^3H-49b was added to 500 uM of unlabeled 49b to a final concentration of 50 μCi/mL ^3H-49b. The probe solution was then serially diluted in PBS to give six solutions giving 6.6, 13.1, 26.3, 52.5, 105, or 210 uM in the final assay well. Each concentration of the probe solution was incubated with 12 μg beta-amyloid 1-42 oligomer (20% biotin) or 1-40 (20% biotin) fibrils in a total volume of 90 μL. Assays were incubated at room temp for 2 hrs before addition of 10 μL YSi-streptavidin (0.25 mg) SPA bead. Assays were set-up in triplicate in 96-well NBS plates (Costar). Assays were incubated overnight and counted the following morning. […] Assay conditions were the same as described in saturation binding assay.
(§2) Data analyses were performed using Sigma Plot or GraphPad Prism® version 4. Curves were fitted using non-linear regression. KD values and IC50 values were estimated from the binding curves.
A direct binding assay using tritium labeled 49b was performed against oligomers or fibrils by scintillation proximity assay (SPA). Beta-amyloid containing 20% biotin and tritiated 49b were incubated in solution for two hours prior to addition of the Ysi-Streptavidin beads.

[3] = molecular target: T2, Aβ 1-40 fibrils (Homo sapiens, UniProt P05067); assay: SPA competition binding against 3H-PIB on A-beta fibrils; conditions: ~30 nM [3H]PIB, 10 μg Aβ 1-40 fibrils, unlabeled competitor
T2 construct: Lyophilized human beta-amyloid 1-40 peptide (Catalog number H-1194, Bachem); purchased Bachem H-1194 (unlabelled), H-5914 (biotinylated)
T2 sequence (P05067 672-711): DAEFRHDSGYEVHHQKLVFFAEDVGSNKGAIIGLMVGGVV
Description: For the ^3H-PIB binding reaction, 10 μg Aβ 1-40 fibrils were incubated with ˜30 nM [^3H]PIB in the presence of the unlabeled competitors in a total volume of 90 μl PBS. […] Non-specific binding wells contained PBS instead of fibril/oligomer. Assays were incubated at room temperature for 2 hr before addition of 10 μl YSi-streptavidin bead (0.13 mg). Assays were shaken for 1 min and then incubated overnight before counting the following morning using Microbeta.
as §2

[4] = molecular target: T3, beta-amyloid 1-40 fibrils (20% biotin) (Homo sapiens, UniProt P05067); assay: SPA saturation binding of 3H-49b to 1-40 fibrils; conditions: same conditions as for soluble oligomers; compared with oligomers
T3 construct: Lyophilized human beta-amyloid 1-40 peptide (Catalog number H-1194, Bachem); purchased Bachem H-1194 (unlabelled), H-5914 (biotinylated)
T3 sequence (P05067 672-711): as above
Description: B. Insoluble A-beta (1-40) fibril formation: Lyophilized human beta-amyloid 1-40 peptide (Catalog number H-1194, Bachem) was solubilized with HFIP to produce a dry clear film following the process described above for beta-amyloid 1-42. The clear film of beta-amyloid 1-40 was diluted with 10 mM phosphate buffer, pH 7.4, containing 1 mM EDTA, such that final Aβ concentration was 0.5 mg/ml, then mixed briefly. The solution was incubated at 37° C. on an orbital shaker set at 200 rpm for 48 h. A cloudy solution was produced, and the fibril production was confirmed by measuring changes in fluorescence of Thioflavin T, as well as by atomic force microscopy and transmission electron microscopy. Fibrils were used immediately after their production was confirmed.
as §1
For the saturation-binding assay, isotopic dilution of radiolabeled 49b with unlabeled 49b was performed. ^3H-49b was added to 500 uM of unlabeled 49b to a final concentration of 50 μCi/mL ^3H-49b. The probe solution was then serially diluted in PBS to give six solutions giving 6.6, 13.1, 26.3, 52.5, 105, or 210 uM in the final assay well. […] Assays were incubated overnight and counted the following morning. […]

[5] = molecular target: 1-42 fibrils (Homo sapiens, UniProt P05067); assay: SPA binding of 3H-49b to 1-42 fibrils; conditions: same conditions used to measure binding to soluble oligomers
Sequence of 1-42 fibrils (P05067 672-713): as the sequence (P05067 672-713) above

[6] = saturation binding with oligomers

| Kd ([2]; 3H-49b isotopically diluted with unlabeled 49b, incubated with oligomers, read-out: binding constant (saturation binding)) [µM] | Bmax [2, 6] | molar ratio probe:beta-amyloid at Bmax [2, 6] | competition of tritium labeled PIB binding to fibrils (in words) [3] | binding to 1-40 fibrils [4] | IC50 [1] [µM] | Structure (SMILES) | % inhibition [1] [%] | specificity, oligomers over fibrils ([2]; direct binding of 3H-49b, oligomers versus fibrils) | affinity for 1-42 fibrils [5] |
| --- | --- | --- | --- | --- | --- | --- | --- | --- | --- |
| – | – | – | – | – | – | CNc1ccc(-c2nc3ccc(O)cc3s2)cc1 [Formula I, 2-(4-methylamino)phenylbenzothiazol-6-ol, reference compound] | 3 | – | – |
| 50 | 60-80 nmol/mg beta-amyloid | 1 probe:3-4 beta-amyloid | not competed | Much less binding was observed | 60 | O=Cc1ccc(-c2oc3ccccc3c2CO)o1 [Formula II, 2-(2-formyl-5-furanyl)-3-hydroxymethyl benzofuran] | – | showed specificity to oligomers over fibrils | no measurable affinity could be determined |
| – | – | – | did not compete | – | 1 to 7 | O=C(Nc1ccc(O)c(C(=O)O)c1)c1ccc(-c2ccc(C(=O)Nc3ccc(O)c(C(=O)O)c3)cc2)cc1 [Formula III] | 82 | – | – |
